In brackets after ≈: the same amount, converted by molar mass.

The nature of experiment [1]: Cytotoxicity against human KB16 cells. The class given is functional, cell-based.
A short description of experiment [2]: Cytotoxicity against human DLD cells. It counts as functional, cell-based.

Consider `C=C1CC[C@H](OC(=O)C(C)C)[C@@]2(C)[C@@H](OC(C)=O)CC[C@@]3(CO3)[C@@H]2[C@H](OC(C)=O)[C@]2(O)[C@@H](C)C(=O)O[C@H]2[C@H]1Cl` [JUNCENOLIDE A], for which the 50% inhibitory concentration (IC50) stood at 5.9 µg/mL (≈ 10.3 µM) in experiment [1] and 3.4 µg/mL (≈ 5.95 µM) in experiment [2].

The term IC50 denotes the concentration that inhibits the measured activity by half. Lower therefore signals inhibition by little substance.

Values taken from ChEMBL document CHEMBL1159306, “Juncenolide A, a new briarane from the Taiwanese Gorgonian Junceella juncea” (J Nat Prod, 2002).
